Measurements from patent EP4745130A1, “CRYSTAL FORMS OF TUBULIN-SRC DUAL-TARGETING INHIBITOR, PREPARATION METHOD THEREFOR AND USE THEREOF” (Hubei Bio-Pharmaceutical Industrial Technological Institute …, priority 2023, dated 2025).
Where two headings read alike, the source gives them in different places.

Columns and labels:
[1] = Thermodynamic solubility test; assay type: physicochemical; details: for solubility: thermodynamic from solid, 4 mg/mL, overnight at room temperature
Method: Phosphate buffer saline (PBS) with a pH of 7.4, FeSSIF solution with a pH of 6.5, and FaSSGF solution with a pH of 1.6 were prepared. The compound was accurately weighed and added to prepared phosphate buffer saline with a pH of 7.4, FeSSIF solution with a pH of 6.5, and FaSSGF solution with a pH of 1.6 to prepare into a solution with a concentration of 4 mg/mL. The solution was shaken at a speed of 1000 rpm for 1 hour, and then incubated overnight at room temperature. The incubated solution was centrifuged at 12,000 rpm for 10 minutes to remove undissolved particles, and the supernatant was transferred to a new centrifuge tube. After the supernatant was appropriately diluted, an acetonitrile solution containing internal standard was added, and a standard curve prepared with the same matrix was used for quantification. Table 42: Thermodynamic solubility test results

[2] = system: Human cutaneous squamous cell carcinoma cell A-431; experiment: Cell proliferation inhibition test, A-431; assay type: cell-based; details: A-431, 96 h, 4 days incubation
Method: Human cutaneous squamous cell carcinoma cell A-431 (ATCC, CRL-1555) and actinic keratosis patient-derived cell HT 297.T (ATCC, CRL-7782) proliferation assays were used to detect the inhibitory effect of small molecular compounds on cell proliferation.
A-431 cells and HT 297.T cells were cultured in DMEM medium containing 10% fetal bovine serum and grown at 37°C in a 5% CO2 incubator. Cells on logarithmic phase were seeded into a 96-well cell culture plate at 1000 cells/well, 100 µL per well, and then cultured overnight at 37°C in a 5% CO2 incubator. The next day, 100 µL of gradient-diluted 2× test compound solution was added to each well, with DMSO serving as a positive control, and 10 µM staurosporine (Aladdin, S102392) was set as a negative control group. After the addition of the compounds, the culture plate was incubated for another 4 days at 37°C in a 5% CO2 incubator. After incubation, the Steady-Glo® luciferase assay system (Promega, G9243) was used according to the supplier's instructions to measure the fluorescence signal value on the Envision 2104 Multilabel Reader. The inhibition rate was calculated by the following formula, then the curve was plotted with the Log value of the inhibitor concentration as the X-axis and the inhibition rate as the Y-axis, and the IC50 was calculated using Graphpad 8.0. [formula] […]

[3] = Pharmacokinetic test in mice; assay type: in vivo
Method: For the pharmacokinetic test in mice, 3 male ICR mice, 20 to 25 g, were used, fasted overnight, and administered by tail vein injection (1 mg/kg or 5 mg/kg). Blood was collected before the administration, and at 15 min, 30 min, 1 hour, 2 hours, 4 hours, 8 hours, and 24 hours after the administration. Another 3 mice were taken and administered by oral gavage (5 mg/kg), and blood was collected before the administration, and at 15 min, 30 min, 1 hour, 2 hours, 4 hours, 8 hours, and 24 hours after the administration. Blood samples were centrifuged at 6800 g at 2 to 8°C for 6 min, and plasma was collected and stored at -80°C. The plasma at each time point was taken and added with an acetonitrile solution containing internal standard in 3 to 5 times the amount. The mixture was vortexed and mixed for 1 min, and centrifuged at 13,000 rpm at 4°C for 10 min. The supernatant was collected, added with water in 3 times the amount, and mixed. An appropriate amount of the mixture was taken for LC-MS/MS analysis. The main pharmacokinetic parameters were analyzed using WinNonlin 7.0 software with non-compartmental model. Table 43: Results 1 of pharmacokinetic tests in mice

[4] = Human liver microsome stability test; assay type: in vitro ADME
Method: The human liver microsome stability test was performed by incubating the compound and human liver microsomes in vitro. First, the compound to be tested was prepared into a 10 mM stock solution in DMSO solvent, and then the compound was diluted to 0.5 mM with acetonitrile. Human liver microsomes (Corning) were diluted with PBS into a microsome/buffer solution, and the solution was used to dilute 0.5 mM compound into a working solution, in which the concentration of the compound was 1.5 µM, and the concentration of human liver microsomes was 0.75 mg/mL. A deep-well plate was taken, 30 µL of the working solution was added per well, and then 15 µL of pre-heated 6 mM NADPH solution was added thereto to initiate a reaction, and the reaction was incubated at 37°C. At 0, 5, 15, 30 and 45 min of the incubation, 135 µL of acetonitrile was added to the corresponding wells to terminate the reaction. After the reaction was terminated with acetonitrile at the last time point of 45 min, the deep-well plate was vortexed and shaken for 10 min (600 rpm), and then centrifuged for 15 min. After centrifugation, the supernatant was collected, and added with purified water in a ratio of 1:1 to perform LC-MS/MS detection. A ratio of a peak area of compound to a peak area of internal standard at each time point was obtained, and the peak area ratios of the compound at 5, 15, 30 and 45 min were compared with the peak area ratio at 0 min to calculate the remaining percentage of the compound at each time point. T1/2 was calculated by using GraphPad 5 software. Table 45: Results of human liver microsome stability test

p-SRC = experiment: Inhibition of Src signaling pathway (Western Blot of p-SRC in A-431 cells); assay type: cell-based, Human
Method: The Western Blot method was used to detect the compound's inhibition of p-SRC in A-431 skin cancer cells (ATCC, CRL-1555) to evaluate the inhibitory effect of the compound on the SRC signaling pathway.
A-431 cells were cultured in DMEM medium containing 10% fetal bovine serum and grown at 37°C in a 5% CO2 incubator. 500,000 cells/well were seeded in a 12-well cell culture plate and cultured overnight at 37°C in a 5% CO2 incubator. The next day, the culture medium was replaced and different concentrations of the compound were added, with DMSO serving as a control. After the addition of the compounds, the culture plate was cultured for another 24 hours at 37°C in a 5% CO2 incubator. The cells were washed once with PBS, and lysed with RIPA lysis buffer (R0010, Solarbio) at low temperature for 30 minutes. Afterwards, the protein lysate was collected into a centrifuge tube, centrifuged at 14,000 g at 4°C for 10 minutes, and the supernatant was transferred to a new tube. The BCA protein concentration assay kit (P0009, Beyotime Biotechnology) was used to detect and calculate the protein concentration. A 5× protein loading buffer was used to quantify the protein of each sample consistently. The samples were boiled at 100°C for 5 minutes, and subjected to western blot to detect the level of p-SRC. […]

[5] = in words, compared with the control compound
[6] = mouse, plasma, male ICR mice, intravenous injection administration (1 mg/kg)
[7] = mouse, plasma, male ICR mice, oral gavage administration (5 mg/kg)

solubility ([1]; FeSSIF solution, FeSSIF (pH 6.5), read-out: Solubility (µg/mL) FeSSIF (pH 6.5)): 650 µg/mL
thermodynamic solubility ([1]; in words, under neutral conditions, compared with the control compound): greater thermodynamic solubility
solubility ([1]; phosphate buffer saline (PBS), aqueous buffer, PBS (pH 7.4), read-out: Solubility (µg/mL) PBS (pH 7.4)): 101 µg/mL
IC50 [2]: 22.6 nM
metabolism in mice in vivo [3, 5]: rapid metabolism
AUC(0-t) [3, 6]: 430 ng·h/mL
clearance [3, 6]: 34.5 mL/min/kg
AUC(0-t) [3, 7]: 443 ng·h/mL
Cmax [3, 7]: 322 ng/mL
half-life at 1 µM ([4]; human liver microsomes, NADPH, 37°C, 0-45 min): 17.2 min
metabolism by human liver microsomes ([4]; in words): metabolized quickly
SMILES: Cc1cc(OCCN2C[C@H]3COC[C@H]3C2)ccc1-c1ccc(CC(=O)NCc2ccccc2)nc1 [Compound of Formula I, N-benzyl-2-(5-(2-methyl-4-(2-((3aR,6aS)-tetrahydro-1H-furo[3,4-c]pyrrol-5(3H)-yl)ethoxy)phenyl)pyridin-2-yl)acetamide]
phosphorylation of SRC (p-SRC; 80 nM, A-431 cells, 24 hours): significantly inhibit the phosphorylation of SRC
p-SRC inhibitory activity (p-SRC; [5]): better p-SRC inhibitory activity compared with the control compound
